Experimental data taken from patent US7919624B2, “VR1 vanilloid receptor antagonists with a iononic substructure” (Pharmeste S.R.L., priority 2006, dated 2011).
pIC50, pKd, pKi: −log10 of the molar value.

Tests used:
[1] = target: T1, TRPV1 expressing neurons (rat trigeminal neurons) (Rattus norvegicus, UniProt O35433); test: Ca2+ fluorescence measurements in cultured rat trigeminal ganglia; format: cell-based; conditions: 0.1 μM capsaicin, mean and 95% fiducial limits, read-out: IC50 inhibiting capsaicin-evoked [Ca2+]i mobilization
T1 construct: Two-days old Newborn rats were terminally anaesthetized and decapitated; Trigeminal ganglia were removed; endogenous in cells; host or cells: primary cultured trigeminal ganglion neurons from newborn Sprague-Dawley rats
T1 sequence (O35433 whole entry): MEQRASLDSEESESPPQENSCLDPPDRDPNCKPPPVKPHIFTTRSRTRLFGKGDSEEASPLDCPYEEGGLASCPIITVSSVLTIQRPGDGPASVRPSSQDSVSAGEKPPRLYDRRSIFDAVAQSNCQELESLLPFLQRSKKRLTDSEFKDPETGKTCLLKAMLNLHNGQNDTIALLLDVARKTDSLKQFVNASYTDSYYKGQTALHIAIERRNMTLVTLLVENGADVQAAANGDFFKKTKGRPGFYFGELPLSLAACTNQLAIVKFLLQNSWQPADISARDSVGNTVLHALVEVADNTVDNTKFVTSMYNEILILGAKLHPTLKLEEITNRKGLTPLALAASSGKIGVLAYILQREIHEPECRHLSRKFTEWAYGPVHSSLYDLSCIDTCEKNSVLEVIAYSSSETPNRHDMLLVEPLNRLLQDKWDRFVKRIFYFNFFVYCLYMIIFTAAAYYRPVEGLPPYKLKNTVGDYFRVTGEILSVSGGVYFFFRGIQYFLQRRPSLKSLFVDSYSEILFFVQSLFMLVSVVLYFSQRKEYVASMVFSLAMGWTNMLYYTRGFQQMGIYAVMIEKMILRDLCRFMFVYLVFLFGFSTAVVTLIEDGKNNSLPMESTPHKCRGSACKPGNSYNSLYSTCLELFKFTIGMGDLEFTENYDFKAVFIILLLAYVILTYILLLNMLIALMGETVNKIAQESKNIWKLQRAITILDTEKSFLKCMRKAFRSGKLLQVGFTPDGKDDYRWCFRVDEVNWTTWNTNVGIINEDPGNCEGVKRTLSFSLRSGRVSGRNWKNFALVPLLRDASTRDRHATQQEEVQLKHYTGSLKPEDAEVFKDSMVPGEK
Description: Ca^2+ Fluorescence Measurements in Cultured rat Trigeminal Ganglia
Two-days old Newborn rats were terminally anaesthetized and decapitated. Trigeminal ganglia were removed and rapidly placed in a cold phosphate buffered solution (PBS) before being transferred to collagenase/dispase (1 mg/ml dissolved in Ca^2+- Mg^2+-free PBS) for 35 min at 37° C.^7 After the enzymatic treatment the ganglia were rinsed three times with Ca^2+- Mg^2+-free PBS and then placed in 2 ml of cold DMEM supplemented with 10% fetal bovine serum (FBS, heat inactivated), 2 mM L-glutamine, 100 μ/ml penicillin and 100 μg/ml streptomycin. The ganglia were dissociated into single cells by several passages through a series of syringe needles (23G down to 25G). Finally, the medium and the ganglia cells were sieved through a 40 μm filter to remove debris and topped up with 8 ml of DMEM medium and centrifuged (200×g for 5 min). The final cell pellet was re-suspended in DMEM medium [supplemented with 100 ng/ml mouse Nerve Growth Factor (mouse-NGF-7S) and cytosine-β-D-arabinofuranoside free base (ARA-C) 2.5 μM]. Cells were plated on poly-L-lysine-(8.3 μM) and laminin-(5 μM) coated 25 mm glass cover slips and kept for 5 to 8 days at 37° C. in a humidified incubator gassed with 5% CO2 and air. Plated neurons were loaded with Fura-2-AM-ester (3 μM) in Ca^2+ buffer solution of the following composition (mM): CaCl2 1.4, KCl 5.4, MgSO4 0.4, NaCl 135, D-glucose 5, HEPES 10 with BSA (0.1%), at pH 7.4, for 40 min at 37° C. The plated neurons were then washed twice with the Ca^2+ buffer solution and transferred to a chamber on the stage of Nikon eclipse TE300 microscope. Fura-2-AM-ester was excited at […] to indicate relative [Ca^2+]i changes by the F340/F380 ratio recorded with a dynamic image analysis system (Laboratory Automation 2.0, RCS, Florence, Italy). After transferring the plated neurons to the chamber, they were allowed (at least 10 min) to attain a stable fluorescence before beginning the experiment. A calibration curve was performed using buffer containing Fura-2-AM-ester and determinant concentrations of free Ca^2+.
The results are expressed as mean and 95% fiducial limits.

[2] = tested on: capsaicin-induced tactile allodynia; test: Capsaicin-induced secondary allodynia in rat; format: in vivo; conditions: 10 mg/kg orally 2 hours prior to capsaicin (20 nmols/50 μl/paw), 90 min after capsaicin challenge
Description: Capsaicin-induced Secondary Allodynia in Rat
Capsaicin (20 nmols/50 μl/paw) was injected in the plantar surface of the glabrous skin of the right paw of rats anesthetized with diethyl ether (Chaplan et al., 1994). Compound Id was orally administered (10 mg/kg) 2 hours prior to capsaicin injection. Tactile allodynia was evaluated 90 min after capsaicin challenge.

[3] = target: T2, TRPV1 expressed in rat spinal cord (Rattus norvegicus, UniProt O35433); test: Radioligand binding assay, [3H]-RTX, rat spinal cord membranes; conditions: 37° C. 60 min, range in brackets; for pKi: [3H]RTX 0.4 nM, read-out: Ki value, competition binding of [3H]-RTX
T2 construct: the spinal cord was removed and disrupted using a Polytron tissue homogenizer; from tissue; host or cells: spinal cord membranes of male Sprague-Dawley rats
T2 sequence (O35433 whole entry): as above
Description: Radioligand Binding Assay
Male Sprague-Dawley rats with body weight between 250 and 350 g at the time for testing were used. For binding assays rats were sacrificed by decapitation under anesthesia and the spinal cord was removed and disrupted using a Polytron tissue homogenizer in ice cold buffer containing 5 mM KCl, 5.8 mM NaCl, 0.75 mM CaCl2, 2 mM MgCl2, 320 mM sucrose, 10 mM Hepes, pH 8.6.^5 The homogenized tissue was centrifuged at 1000×g for 10 min at 4° C. and the supernatant was centrifuged again at 35000×g for 30 min at 4° C. (Beckman Avanti J25). The pellet was resuspended in the same buffer described above and used in binding experiments. In saturation experiments, 150 μg protein/sample from membrane suspensions were incubated with [^3H]-resiniferatoxin ([^3H]-RTX) (0.003-3 nM) in the assay buffer containing 0.25 mg/ml fatty acid-free bovine serum albumin at 37° C. for 60 min. In competition experiments, the membranes were incubated at 37° C. for 60 min with [^3H]RTX (0.4 nM) and increasing concentrations of the examined compounds in the range from 0.1 nM to 3 μM. Non-specific binding was defined in the presence of 1 μM RTX. After incubation, the reaction mixture was cooled at 0° C. and incubated with bovine α1-acid glycoprotein (200 μg per tube) for 15 min to reduce non-specific RTX binding. Membrane-bound RTX was separated from free RTX through centrifugation of the samples at 18500×g for 15 min. The tip of the microcentrifuge tube containing the pellet was cut off and radioactivity was determined by scintillation counting (Packard 2500 TR). Protein concentration was determined according to a Bio-Rad method with bovine serum albumin as reference standard (Bradford, 1976). Saturation and competition studies were analysed with the program Ligand.^6

| pIC50 [1] | pKi [3] | SMILES | preventive effect against the pro-allodinic effect of capsaicin [2] [%] | pKd ([3]; [3H]-RTX 0.003-3 nM, read-out: KD value, saturation curve of [3H]-RTX) |
| --- | --- | --- | --- | --- |
| 7.74 | 7.57 | CC1=C(/C=C/C(=O)Nc2cccc3cnccc23)C(C)(C)CCC1Oc1ccc(Cl)cc1 (stereo not shown) [Compound Id, (2E)-3-(3-(4-chlorophenoxy)-2,6,6-trimethylcyclohex-1-enyl)-N-(isoquinolin-5-yl)acrylamide] | 54 |  |
|  |  | C=C(C)[C@]12C[C@@H](C)[C@@]34O[C@](Cc5ccccc5)(O[C@@H]1[C@@H]3C=C(COC(=O)Cc1ccc(O)c(OC)c1)C[C@]1(O)C(=O)C(C)=C[C@@H]41)O2 [[^3H]-RTX, [^3H]-resiniferatoxin, reference compound] |  | 9.68 |
| 7.36 | 7.18 | CC1=C(/C=C/C(=O)Nc2cccc3cnccc23)C(C)(C)CCC1 [Ia, (2E)-N-(isoquinolin-5-yl)-3-(2,6,6-trimethylcyclohex-1-enyl)acrylamide] |  |  |
| 8.28 | 7.83 | CC1=C(/C=C/C(=O)Nc2cccc3cnccc23)C(C)(C)CCC1Oc1ccc(F)cc1 (stereo not shown) [Ie, (2E)-3-(3-(4-fluorophenoxy)-2,6,6-trimethylcyclohex-1-enyl)-N-(isoquinolin-5-yl)acrylamide] |  |  |
| 8.67 | 8.31 | CC1=C(/C=C/C(=O)Nc2cccc3cnccc23)C(C)(C)CCC1Oc1ccccc1 (stereo not shown) [Ic, (2E)-N-(isoquinolin-5-yl)-3-(2,6,6-trimethyl-3-phenoxycyclohex-1-enyl)acrylamide] |  |  |
| 9.19 | 7.99 | CC1=C(/C=C/C(=O)Nc2cccc3cnccc23)C(C)(C)CCC1Oc1ccc(F)c(F)c1 (stereo not shown) [Ig, (2E)-3-(3-(3,4-difluorophenoxy)-2,6,6-trimethylcyclohex-1-enyl)-N-(isoquinolin-5-yl)acrylamide] |  |  |
| 9.42 | 8.09 | CC1=C(/C=C/C(=O)Nc2cccc3cnccc23)C(C)(C)CCC1Oc1cccc(F)c1 (stereo not shown) [If, (2E)-3-(3-(3-fluorophenoxy)-2,6,6-trimethylcyclohex-1-enyl)-N-(isoquinolin-5-yl)acrylamide] |  |  |
| 7.55 | 7.58 | COC1CCC(C)(C)C(/C=C/C(=O)Nc2cccc3cnccc23)=C1C (stereo not shown) [Ib, (2E)-N-(isoquinolin-5-yl)-3-(3-methoxy-2,6,6-trimethylcyclohex-1-enyl)acrylamide] |  |  |
